1 molecule from US10300070B2, “Metabolically-activated drug conjugates to overcome resistance in cancer therapy” (The Brigham and Women's Hospital, Inc., priority 2014, dated 2019) can be followed below.

One assay relates to MDA-MB-231 parent or DTC. Put plainly: Glucose uptake (2-NBDG) determined by FACS. It counts as cell-based. The following applies: sub-lethal docetaxel (25 nM), MDA-MB-231. Here is the method: MDA-MB-231 (ATCC), MDA-MB-468 and 4T-1 mammary carcinoma cells (ATCC) were cultured in DMEM containing 10% Fetal Bovine Serum (FBS) at 37 C and 5% CO2. DU145 and DU145-TxR were provided by A. Mizokami^63 and cultured in DMEM containing 10% FBS, resistant line included 100 nM paclitaxel in the culture media. During treatments with chemotherapeutics, cells were grown to semi-confluence and treated with indicated concentrations of chemotherapy in serum-containing medium for indicated time points. When small molecule inhibitors were included in treatments, they were added simultaneously with chemotherapy. For siRNA gene knockdown, cells were transfected with silencer-select siRNA plasmids (Ambion, Invitrogen, Grand Island, N.Y.) pan-CD44(1) (s2682) panCD44(2) (s2681), siHIF1A (s6539) using lipofectamine 2000 (Invitrogen, Carlsbad Calif.) following manufacturer protocol and cultured for 72 hours prior to treatment. Scrambled siRNA was used as a control. For chemotherapy treatment experiments: Cancer cells were plated at a density of 0.5-1×10^5 cells/ml and allowed to adhere for 24-48 hr. When cells reached ˜70% confluency they were treated with cytotoxics at indicated concentrations for 24-48 hours and utilized for subsequent assays. For experiments in which a shorter incubation was used (i.e. 15 min-4 hours) fresh media was added 24 hours prior to addition of chemotherapy suspended to stock concentration in PBS. For generation of DTC: Cells were treated for 48 hours with chemotherapy. Following washes with PBS, adherent cells were trypsinized and re-plated at a density of 1.5-2×10^5 cells/ml and cultured in serum-containing medium. After 24 hours incubation, floating cells were removed and remaining cells were washed with 1× PBS and considered as chemotherapy-tolerant cells. A population of drug naïve parent cells were always cultured alongside DTC and fresh media was added at every interval that experimental population (DTC) received fresh media.
In vitro detection of glucose uptake was performed using 2-(N-7-Nitrobenz-2-oxa-1,3-diazol-4-yl)Amino)-2-Deoxyglucose (2-NBDG) (Invitrogen, Carlsbad Calif.), dissolved in DMSO to 50 mM. Cells were pre-treated with kinase inhibitors or vehicle for 3 hours in glucose- and phenol red-free media before addition of 50 μM 2-NBDG and subsequently read by FACS ex/em 488/535 nm. ROS was determined by pre-loading cells with CM-DCFDA (1 μM), washed 2 times with PBS and subsequently treated with H2O2 or vehicle; when kinase inhibitors were included in treatment, cells were first incubated with inhibitor for 3 hours prior to CM-DCFDA loading. Fluorescence was then determined by FACS ex/em 488/535 nm. For the following assays, cells were trypsinized and counted by Nexcelom cell counter (Lawrence, Mass.) prior to being subjected to analysis in order to achieve a quantitative value per cell: Reduced glutathione was determined using a colorimetric glutathione recycling system by DTNB following manufacturer protocol (Biovision, Milpitas Calif.). ATP analysis was performed using the ATP colorimetric analysis kit (Biovision) according to manufacturer protocol. Reductive stress was detected using the Enzo nitroreductase hypoxia kit (Enzo Life Sciences, Ann Arbor Mich.) following manufacturer protocol and visualized by fluorescent microscopy; a set of non-docetaxel-treated control cells loaded with fluorescent probe were compared against docetaxel-treated cells to derive a % redox stress increase which was calculated as fluorescence intensity of nitroreductase probe per cell and expressed as increase from vehicle. Protein synthesis was measured by two means 1. L-azidohomoalanine amino acid analog of methionine containing an azide moiety was added to cultured cells (parent or DTC) for 3 hours which is incorporated into proteins during active protein synthesis. […]
For orientation: A flow cytometer gives signals particle by particle.

A further assay deals with tumor tissue. The assay is described as follows: Whole tissue glucose levels from tumor homogenate after intratumoral injection. It counts as in vivo, mice. The following applies: docetaxel intratumoral injection, within 12 hours post-administration. How it is done:
(§1) 1 million 4T-1 mouse mammary carcinoma cells suspended in 100 μL PBS were injected per left flank of 5-6 week old Balb/C (heterotopic) or mammary fat pad (orthotopic). Docetaxel (DTX) was dissolved in pure Ethanol at a concentration of 50 mg/ml mixed 1:1 with Polysorbate 80 (Tween 80) and brought to a final working concentration with PBS. Tumor volumes were assessed by the following formula: (Width×Width×length)/2 and values were utilized to calculate tumor specific growth rate (SGR) by the algorhythm (ln [V2/V1]/[t2−t1)] where V=volume and t=time in days^64. For in vivo analysis of 2-NBDG uptake, mice were treated as indicated (i.e. Docetaxel intratumoral or intravenously) and monitored until tumors reached ˜300 mm^3. Subsequently, mice were administered a 10 mg/kg i.v. injection of 2-NBDG 2 hours prior to sacrificing and harvesting tumors for confocal microscopic analysis by frozen section (described below). […] Glucose quantitation (mg/dL) was measured using the onetouch lifescan glucose monitor (Life Scan, Inc. Militipas, Calif.) by calculating mg of glucose per volume of tissue homogenate (in PBS) and normalized as a ratio of mg/dL of glucose to mg of tissue homogenized. Typically, >250 mg of tissue was homogenized in 50 μL of PBS to achieve a readable output.

The test system of another assay is CD44 and GLUT1. The assay is described as follows: Confocal microscopy of CD44 and GLUT-1 in residual tumors, orthotopic syngeneic mammary carcinoma model (4T-1). It counts as in vivo, mice. Conditions: 72 hours after docetaxel at MTD (10 mg/kg i.v.) vs vehicle. How it is done:
as §1, with “output. […]” for “output.”

Regarding `CC(=O)O[C@@]12CO[C@@H]1C[C@H](O)[C@@]1(C)C(=O)[C@H](O)C3=C(C)[C@@H](OC(=O)[C@H](O)[C@@H](NC(=O)OC(C)(C)C)c4ccccc4)C[C@@](O)([C@@H](OC(=O)c4ccccc4)[C@H]21)C3(C)C` [docetaxel], the “time point at which augmented glucose uptake was observed” value in the assay with MDA-MB-231 parent or DTC is given as 24 h. The “whole tissue glucose levels in tumor” value in the assay on tumor tissue is recorded as “significantly higher”. Further, the “expression of CD44 and GLUT1 in residual tumors” value in the assay with CD44 and GLUT1 is “enhanced expression of both CD44 and GLUT1”.
